US7205299B2, “Indole derivatives having an apoptosis-inducing effect” (Zentaris GmbH, priority 2003, dated 2007)
In brackets after ≈: the same amount, converted by molar mass.

Legend:
[1] = tested on: KB/HeLa cells; assay: Cell cycle analysis (G2/M arrest); assay type: cell-based; conditions: Homo sapiens, 24 hours, 37° C., read-out: EC50 (50% of cells in G2/M)
Method: For the cell cycle analysis, KB/HeLa cells were treated with different concentrations of the test substances (0.1–1000 nM) at 37° C. for 24 hours.
The percentage of cells arrested in the G2/M phase of the cell cycle after having been treated with reference substances or selected test substances is shown in Table 4 below. The results were analyzed using special analytical software (ModFit™).

[2] = tested on: murine cell line P388; assay: XTT proliferation assay, P388; assay type: cell-based; conditions: Mus musculus
Excerpt: (§1) For further characterization, substances 1, 2, 4 and 11 were investigated with regard to their effect on mulitdrug-resistance cell lines as compared with that on nonresistant wild-type cell lines.
(§2) The cell lines which were investigated are the murine cell line L1210, the acute myeloid leukemia cell line LT12 and the resistant lines L1210/mdr and LT12/mdr. The murine cell line P388 (methylcholanthrene-induced lymphoid neoplasm) and doxorubicin-resistant P388 were also included as test systems.
(§3) The test results are summarized in Table 2 below: • XTT proliferation assay, EC50 in μg/ml

[3] = tested on: ovarian adenocarcinoma cell line SKOV-3; assay: XTT proliferation assay, SKOV-3; assay type: cell-based, human
Excerpt: (§4) The antiproliferative activity of substances 1, 2, 4, 9, 11, 12, 13 and 15 was investigated in a proliferation test performed on established tumor cell lines (D. A. Scuderio et al. Cancer Res. 1988, 48, 4827–4833). The test which is used determines the cellular dehydrogenase activity and makes it possible to determine cell viability and determine cell number indirectly. The cell lines which are used are the human cervical carcinoma cell line KB/HeLa (ATCC CCL17), the ovarian adenocarcinoma cell line SKOV-3 (ATCC HTB77), the human glioblastoma cell line SF-268 (NCI 503138) and the lung carcinoma cell line NCI-H460 (NCI 503473).

[4] = tested on: resistant line LT12/mdr; assay: XTT proliferation assay, LT12/mdr; assay type: cell-based; conditions: Rattus norvegicus, LT12mdr
Excerpt: as §1, §2, §3

[5] = tested on: resistant line L1210/mdr (L1210VCR); assay: XTT proliferation assay, L1210VCR; assay type: cell-based, murine; conditions: Mus musculus
Excerpt: as §1, §2, §3

[6] = tested on: doxorubicin-resistant P388; assay: XTT proliferation assay, P388ADR; assay type: cell-based, murine; conditions: Mus musculus
Excerpt: as §1, §2, §3

[7] = tested on: lung carcinoma cell line NCI-H460; assay: XTT proliferation assay, NCI-H460; assay type: cell-based, human
Excerpt: as §4

[8] = tested on: human cervical carcinoma cell line KB/HeLa; assay: XTT proliferation assay, KB/HeLa; assay type: cell-based
Excerpt: as §4

[9] = target: bovine tubulin (Bos taurus, UniProt P81947+Q6B856); assay: Inhibition of tubulin polymerization; assay type: biochemical; conditions: summary of Table 3
Method: Substances 1, 4, 9, 11, 12, 13 and 15 were tested for their ability to inhibit the polymerization of bovine tubulin in an in-vitro test (D. M. Bollag et al. Cancer Res. 1995, 55, 2325–2333). This test uses-tubulin which has been purified by cycles of polymerization and depolymerization and which is caused to polymerize by adding GTP and heating it. Table 3 gives the EC50 values causing inhibition of the polymerization of tubulin containing 30% associated proteins (MPAs).

[10] = tested on: human glioblastoma cell line SF-268; assay: XTT proliferation assay, SF-268; assay type: cell-based
Excerpt: as §4

[11] = tested on: acute myeloid leukemia cell line LT12; assay: XTT proliferation assay, LT12; assay type: cell-based; conditions: Rattus norvegicus
Excerpt: as §1, §2, §3

[12] = tested on: murine cell line L1210; assay: XTT proliferation assay, L1210; assay type: cell-based; conditions: Mus musculus
Excerpt: as §1, §2, §3

[13] = target: human DNA topoisomerase II (Homo sapiens, UniProt P11388); assay: kDNA assay for testing topoisomerase II activity; assay type: biochemical; conditions: compound 1 at 100, 31.6 and 10 μM; reference compounds 100 μM
Method: In this assay, which was described by P. Arimondo (Anti-Cancer Drug Design 2000, 15(6), 413–421), kDNA is treated with human DNA topoisomerase II in the absence or presence of the test compounds. In the assay, compound 1 according to the invention was tested at three different concentrations (100, 31.6 and 10 μM). A positive control and the reference compounds m-amsacrine (m-amsa), paclitaxel (Taxol) and vincristine, with the concentration in each case being 100 μM, were used for comparison.
2 μL of 10× assay buffer, 1 μL of kDNA (200 ng), 0.5 μL of human topoisomerase II (1 unit) and 15.5 μL of H2O are added by pipette to 1 μL of initially introduced test substance (20 times concentrated in 100% DMSO) and the reagents are mixed.
The reaction assay samples are placed in a heating block which has been preheated to 37° C. and incubated at 37° C. for 10 min. The incubation is stopped after adding 4 μL of 5× Stop buffer and the substance is subsequently extracted with CIA. After that, 20 μL of the supernatant are loaded onto a 1% agarose gel containing 0.25 μg of ethidium bromide/mL and separated at 100 V for 1 h. Finally, the gel is photographed under UV excitation (see FIG. 1). The inhibition of the decatenation of kDNA is quantified using the GelPro® Analyzer Software (see FIG. 2).

[14] = target: human topoisomerase II (Homo sapiens, UniProt P11388); assay: pRYG relaxation assay for testing topoisomerase II activity; assay type: biochemical; conditions: compound 1 at 100, 31.6 and 10 μM; reference compounds 316 and 100 μM
Method: In the assay, the compound 1 according to the invention was tested at three different concentrations (100, 31.6 and 10 μM). The reference compounds m-amsacrine, paclitaxel (Taxol) and vincristine were used, at concentrations of 316 and 100 μM, for comparison.
2 μL of 10× assay buffer, 0.5 μL of pRYG DNA (125 ng), 0.5 μL of human topoisomerase II (1 unit) and 16 μL of H2O are added by pipette to 1 μL of initially introduced test substance (20 times concentrated in 100% DMSO) and the reagents are mixed. The reaction assay samples are placed in a heating block which has been preheated to 37° C. and incubated at 37° C. for 30 min. The incubation is stopped after adding 4 μL of 5× Stop buffer. After that, 10 μL of the assay sample are loaded onto a 1.2% agarose gel containing 0.25 μg of ethidium bromide/mL and separated at 100 V for 2.5 h. Finally, the gel is photographed under UV excitation (see FIG. 3). The inhibition of pRYG relaxation is quantified using the GelPro® Analyzer Software (see FIG. 4).

bovine tubulin, sequence (P81947 whole entry): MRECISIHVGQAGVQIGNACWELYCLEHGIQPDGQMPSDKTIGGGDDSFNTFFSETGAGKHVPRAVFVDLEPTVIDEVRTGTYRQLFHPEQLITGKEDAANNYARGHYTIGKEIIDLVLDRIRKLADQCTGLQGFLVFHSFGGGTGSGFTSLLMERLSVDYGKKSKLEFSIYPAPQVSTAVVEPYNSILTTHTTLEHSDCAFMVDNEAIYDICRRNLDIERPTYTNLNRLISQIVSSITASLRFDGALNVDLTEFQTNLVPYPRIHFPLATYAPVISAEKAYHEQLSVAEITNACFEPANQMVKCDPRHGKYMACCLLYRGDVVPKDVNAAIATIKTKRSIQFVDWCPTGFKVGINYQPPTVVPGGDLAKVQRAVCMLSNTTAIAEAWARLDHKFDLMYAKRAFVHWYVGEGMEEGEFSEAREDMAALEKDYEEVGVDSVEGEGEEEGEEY
bovine tubulin, sequence (Q6B856 whole entry): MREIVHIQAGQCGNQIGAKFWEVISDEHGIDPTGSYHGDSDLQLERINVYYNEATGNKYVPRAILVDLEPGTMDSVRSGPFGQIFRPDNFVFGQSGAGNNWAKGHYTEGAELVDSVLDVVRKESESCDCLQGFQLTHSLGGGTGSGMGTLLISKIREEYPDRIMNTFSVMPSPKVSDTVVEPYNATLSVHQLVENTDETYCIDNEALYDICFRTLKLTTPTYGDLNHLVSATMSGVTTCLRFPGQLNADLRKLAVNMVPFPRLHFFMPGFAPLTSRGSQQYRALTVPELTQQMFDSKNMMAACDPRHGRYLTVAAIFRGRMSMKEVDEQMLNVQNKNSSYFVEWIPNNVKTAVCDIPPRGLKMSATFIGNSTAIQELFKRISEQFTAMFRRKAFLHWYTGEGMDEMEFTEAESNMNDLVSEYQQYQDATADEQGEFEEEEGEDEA
human DNA topoisomerase II, sequence (P11388 whole entry): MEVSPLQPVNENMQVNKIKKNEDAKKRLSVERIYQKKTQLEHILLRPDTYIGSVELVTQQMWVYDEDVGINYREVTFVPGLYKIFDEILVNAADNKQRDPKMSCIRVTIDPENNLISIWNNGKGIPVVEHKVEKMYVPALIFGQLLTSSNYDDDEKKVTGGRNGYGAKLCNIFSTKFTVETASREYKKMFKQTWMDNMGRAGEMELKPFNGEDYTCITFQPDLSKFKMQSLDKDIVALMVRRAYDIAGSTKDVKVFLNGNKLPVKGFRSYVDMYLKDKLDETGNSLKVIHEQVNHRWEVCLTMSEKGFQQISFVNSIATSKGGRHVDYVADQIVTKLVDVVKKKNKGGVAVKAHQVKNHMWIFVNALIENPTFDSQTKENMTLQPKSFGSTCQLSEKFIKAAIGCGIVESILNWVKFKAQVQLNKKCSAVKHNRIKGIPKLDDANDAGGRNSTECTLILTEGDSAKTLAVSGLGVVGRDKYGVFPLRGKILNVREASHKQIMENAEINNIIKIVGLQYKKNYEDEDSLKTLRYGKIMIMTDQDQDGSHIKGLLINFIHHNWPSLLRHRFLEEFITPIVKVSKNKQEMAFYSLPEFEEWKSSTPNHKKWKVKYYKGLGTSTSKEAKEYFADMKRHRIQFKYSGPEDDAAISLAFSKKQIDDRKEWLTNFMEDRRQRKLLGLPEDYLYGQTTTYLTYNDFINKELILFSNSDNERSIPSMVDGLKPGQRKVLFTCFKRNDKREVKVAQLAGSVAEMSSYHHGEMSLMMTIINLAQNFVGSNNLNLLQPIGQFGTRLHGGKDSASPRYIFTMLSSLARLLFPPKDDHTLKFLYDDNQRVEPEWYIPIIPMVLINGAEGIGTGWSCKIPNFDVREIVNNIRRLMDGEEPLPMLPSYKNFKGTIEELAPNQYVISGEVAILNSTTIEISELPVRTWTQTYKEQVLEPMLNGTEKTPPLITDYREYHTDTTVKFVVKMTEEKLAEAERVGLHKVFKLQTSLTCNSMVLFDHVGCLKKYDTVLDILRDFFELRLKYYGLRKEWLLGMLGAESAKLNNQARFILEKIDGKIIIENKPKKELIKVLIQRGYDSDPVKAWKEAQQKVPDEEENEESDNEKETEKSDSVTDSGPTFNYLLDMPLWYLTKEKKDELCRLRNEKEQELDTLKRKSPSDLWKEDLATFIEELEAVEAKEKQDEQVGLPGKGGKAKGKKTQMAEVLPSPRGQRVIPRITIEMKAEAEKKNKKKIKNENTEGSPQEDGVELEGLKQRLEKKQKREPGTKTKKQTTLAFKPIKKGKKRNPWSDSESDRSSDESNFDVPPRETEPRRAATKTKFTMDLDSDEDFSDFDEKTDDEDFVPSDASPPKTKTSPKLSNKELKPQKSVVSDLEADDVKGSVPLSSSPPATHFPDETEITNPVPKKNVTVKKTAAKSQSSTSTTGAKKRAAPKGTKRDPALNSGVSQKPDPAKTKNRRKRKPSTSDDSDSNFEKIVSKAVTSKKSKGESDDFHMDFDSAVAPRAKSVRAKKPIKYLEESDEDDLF
human topoisomerase II, sequence (P11388 whole entry): as above

`O=C(Nc1ccc2ncccc2c1)C(=S)c1cn(Cc2ccc(Cl)cc2)c2ccccc12` [Compound 11, 2-[1-(4-chlorobenzyl)-1H-indol-3-yl]-N-quinolin-6-yl-2-thioxoacetamide] gave an EC50 [1] of 41.8 nM, an EC50 [2] of 0.018 µg/mL (≈ 0.0395 µM) and an EC50 ([3]; Homo sapiens, SK-OV-3, read-out: XTT proliferation assay, EC50, SKOV3) of 0.029 µg/mL (≈ 0.0636 µM). The EC50 [4] was 0.054 µg/mL (≈ 0.118 µM), the EC50 [5] was 0.067 µg/mL (≈ 0.147 µM) and the EC50 [6] was 0.051 µg/mL (≈ 0.112 µM). For the same compound, the EC50 ([7]; Homo sapiens) was 0.057 µg/mL (≈ 0.125 µM), the EC50 ([8]; Homo sapiens, HeLa) was 0.036 µg/mL (≈ 0.079 µM) and the “inhibitory effect on tubulin polymerization (in words)” value [9] was “very potent inhibitory effect”. It also gave an EC50 ([10]; Homo sapiens) of 0.036 µg/mL (≈ 0.079 µM), an EC50 [11] of 0.023 µg/mL (≈ 0.0504 µM) and an EC50 [12] of 0.052 µg/mL (≈ 0.114 µM).
With `O=C(Nc1cccc2cnccc12)C(=O)c1cn(Cc2ccc(Cl)cc2)c2ccccc12` [Compound 13, 2-[l-(4-chlorobenzyl)-1H-indol-3-yl]-N-isoquinolin-5-yl-2-oxoacetamide] the “XTT proliferation assay, EC50, SKOV3” value ([3]; SKOV3) was over 3.16 µg/mL, the “XTT proliferation assay, EC50, NCI-H460” value [7] was over 3.16 µg/mL and the “XTT proliferation assay, EC50, KB/HeLa” value ([8]; KB/HeLa) was over 3.16 µg/mL. The “inhibitory effect on tubulin polymerization (in words)” value [9] was “do not exert any effect” and the “XTT proliferation assay, EC50, SF-268” value [10] was over 3.16 µg/mL.
With `CC(=O)O[C@H]1C(=O)[C@@]2(C)[C@H]([C@H](OC(=O)c3ccccc3)[C@]3(O)C[C@H](OC(=O)[C@H](O)[C@@H](NC(=O)c4ccccc4)c4ccccc4)C(C)=C1C3(C)C)[C@]1(OC(C)=O)CO[C@@H]1C[C@@H]2O` [Paclitaxel, paclitaxel] the “inhibition of topoisomerase II, kDNA decatenation” value [13] was “neither paclitaxel nor vincristine was observed to have any inhibitory effects”, the EC50 [1] was 26.9 nM and the EC50 [2] was 0.035 µg/mL (≈ 0.041 µM). The EC50 [4] was 0.34 µg/mL (≈ 0.398 µM), the EC50 [5] was over 3.16 µg/mL and the EC50 [6] was over 3.16 µg/mL. For the same compound, the “inhibition of topoisomerase II, pRYG DNA relaxation” value [14] was “neither paclitaxel nor vincristine was observed to have any inhibitory effects”, the EC50 [11] was 0.005 µg/mL (≈ 0.00586 µM) and the EC50 [12] was 0.048 µg/mL (≈ 0.0562 µM).
